10 compounds from ChEMBL document CHEMBL1201862, “PubChem BioAssay data set” (2004) can be followed below.

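Values below derive from 48-hour exposures of cells grown in 96-well plates, with endpoints linearly interpolated between the two concentrations bracketing the appropriate inhibition level. GI50 is the concentration that inhibits growth by half.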 The source made the active and inactive calls. No stated cut-off is given here; in the data, active = GI50 up to about 1.1 µM and inactive = higher.

Common to all, as to assay: growth of human tumour cells (NCI), 48 h
For assay [1], the system named is A549.
The test system of assay [2] is EKVX.
Assay [3] concerns K562.
Assay [4] concerns LOX IMVI.
Assay [5] has as its system M14.
The subject of assay [6] is NCI-H460.
Assay [7] has as its system NCI-H522.
The test system of assay [8] is OVCAR-4.
The subject of assay [9] is OVCAR-8.
For assay [10], the system named is RPMI-8226.
Assay [11] concerns SF-295.
Assay [12] deals with SK-MEL-2.
Assay [13] relates to SK-MEL-5.
Assay [14] relates to SN12C.
For assay [15], the system named is SNB-19.
Assay [16] concerns SNB-75.
Assay [17] concerns SW-620.
The subject of assay [18] is U-251.
Assay [19] deals with UACC-257.
The test system of assay [20] is UACC-62.

In the case of `CC(C)(C(=O)N(C(=O)N1CCN(c2ccccc2)CC1)S(=O)(=O)c1ccccc1)c1ccc(Cl)cc1`, the GI50 in assay [1] is 33.7 µM (inactive); in [2] it was 13.5 µM (inactive); in assay [3] it was 5.68 µM (inactive); in assay [4] it was 46.8 µM (inactive); in assay [5], 31.3 µM (inactive); in [6] it was 28.8 µM (inactive). Besides, the GI50 in assay [7] was 4.32 µM (inactive); in [8], 28.1 µM (inactive); in assay [9], 16.6 µM (inactive); in assay [10], 6.95 µM (inactive); in [11], 8.63 µM (inactive); in assay [12], 21.3 µM (inactive). The GI50 in assay [13] is 35.7 µM (inactive); in assay [14] it was 52.4 µM (inactive); in assay [15], 20.5 µM (inactive); in [16], 77.1 µM (inactive); in assay [17] it was 7.03 µM (inactive); in assay [18] it was 6.32 µM (inactive). The GI50 was 46.7 µM (inactive) in assay [19] and 40.6 µM (inactive) in [20].

As for `O=C(C(=O)c1cc2ccccc2[nH]1)c1cc2ccccc2[nH]1`, the GI50 in assay [1] was > 347 µM (inactive); in assay [2] it was > 347 µM (inactive); in assay [3] it was > 332 µM (inactive); in [4], > 347 µM (inactive); in assay [5] it was 213 µM (inactive); in assay [6] it was > 321 µM (inactive). The GI50 in [7] is 13.8 µM (inactive); in assay [8] it was 58.3 µM (inactive); in [9] it was > 224 µM (inactive); in [10] it was 22 µM (inactive); in [11], > 347 µM (inactive); in assay [12] it was > 347 µM (inactive). Also, the GI50 in assay [13] is > 301 µM (inactive); in assay [14], 237 µM (inactive); in assay [15], > 347 µM (inactive); in assay [16] it was > 347 µM (inactive); in assay [17], 153 µM (inactive); in assay [18], > 347 µM (inactive). The GI50 is > 204 µM (inactive) in assay [19] and > 347 µM (inactive) in [20].

Turning to `COc1ccc(N2C(=O)C3c4[nH]c5ccc(OC)cc5c4C4CCC(c5ccccc5)CC4C3C2=O)cc1` (stereo not given), the GI50 in [1] was 12.8 µM (inactive); in [2] it was 9.08 µM (inactive); in assay [3] it was 7.67 µM (inactive); in assay [4], 17.3 µM (inactive); in assay [5], 14.8 µM (inactive); in assay [6], 4.93 µM (inactive). The GI50 in [7] was 7.89 µM (inactive); in [8], 4.21 µM (inactive); in assay [9], 7.48 µM (inactive); in [10] it was 6.25 µM (inactive); in [11] it was 7.73 µM (inactive); in assay [12], 20.3 µM (inactive). Also, the GI50 in [13] was 22.4 µM (inactive); in [14], 6.15 µM (inactive); in assay [15] it was 11.9 µM (inactive); in [16], 3.15 µM (inactive); in assay [17] it was 3.82 µM (inactive); in assay [18], 8.99 µM (inactive). Besides, the GI50 in assay [19] was 17.3 µM (inactive); in assay [20] it was 15.1 µM (inactive).

Consider `O=CNc1ccc2c(c1)C(=O)c1ccccc1-2`, for which the GI50 was > 100 µM (inactive) in assay [1]; 4.69 µM (inactive) in assay [2]; 81.3 µM (inactive) in [3]; 48.8 µM (inactive) in assay [4]; > 100 µM (inactive) in [5]; 46 µM (inactive) in assay [6]. Besides, the GI50 in assay [7] is 60.3 µM (inactive); in [8], > 100 µM (inactive); in [9] it was 50.9 µM (inactive); in assay [10] it was 61.4 µM (inactive); in assay [11], > 100 µM (inactive); in assay [12] it was > 100 µM (inactive). The GI50 in [13] was > 100 µM (inactive); in assay [14], 30.3 µM (inactive); in [15] it was > 100 µM (inactive); in [16], 86.3 µM (inactive); in assay [17], 49.3 µM (inactive); in [18], 65 µM (inactive). Also, the GI50 is > 100 µM (inactive) in assay [19] and 49.9 µM (inactive) in assay [20].

Regarding `Cc1ccc(-c2cc(=O)c3cc(C)c(C)c(C(=O)O)c3o2)cc1N`, the GI50 in [1], in [2], in assay [3], in assay [4], in [5] and in assay [6] was > 100 µM (inactive) throughout. For the same compound, the GI50 in [7], in assay [8], in [9], in assay [10], in assay [11] and in [12] was > 100 µM (inactive) in each case. The GI50 in [13], in assay [14], in assay [15], in assay [16], in [17] and in assay [18] was > 100 µM (inactive) each time. Also, the GI50 in [19] and in assay [20] was > 100 µM (inactive) in each case.

Consider `C/C(=N\NC(N)=O)C(CN(C)C)C(c1ccccc1)c1c(O)c2ccccc2oc1=O` (stereo not given), for which the GI50 in assay [1], in assay [2], in [3], in assay [4], in assay [5] and in assay [6] was > 100 µM (inactive) each time. Moreover, the GI50 in [7] was > 100 µM (inactive); in assay [8], > 100 µM (inactive); in [9], > 100 µM (inactive); in [10] it was 61.5 µM (inactive); in assay [11], > 100 µM (inactive); in assay [12] it was > 100 µM (inactive). Also, the GI50 in [13], in assay [14], in [15], in [16], in [17] and in assay [18] was > 100 µM (inactive) throughout. Also, the GI50 in [19] and in assay [20] was > 100 µM (inactive) in each case.

Regarding `CN(C)CCNC(=O)c1cccc2nc3c(ccc4ccccc43)nc12`, the GI50 was 1.21 µM (inactive) in assay [1]; 5.74 µM (inactive) in assay [2]; 1.52 µM (inactive) in [3]; 1.08 µM (active) in assay [4]; 2.49 µM (inactive) in [5]; 0.479 µM (active) in assay [6]. In addition, the GI50 is 4.22 µM (inactive) in assay [7]; 2.21 µM (inactive) in assay [8]; 1.73 µM (inactive) in [9]; 1.91 µM (inactive) in [10]; 2.56 µM (inactive) in assay [11]; 1.91 µM (inactive) in [12]. The GI50 was 1.76 µM (inactive) in [13]; 2.48 µM (inactive) in assay [14]; 5.06 µM (inactive) in [15]; 3.9 µM (inactive) in [16]; 1.1 µM (active) in assay [17]; 1.47 µM (inactive) in assay [18]. The GI50 in assay [19] is 1.74 µM (inactive); in assay [20], 2.45 µM (inactive).

Consider `CC(=O)OC1CC(O)CC2=CCC3C4CCC(C(C)(O)C(O)CC5COC(=O)C5C)C4(C)CCC3C21C` (stereo not given), for which the GI50 in [1] was > 25 µM (inactive); in [2] it was 8.89 µM (inactive); in [3], 18.4 µM (inactive); in [4], > 25 µM (inactive); in assay [5] it was > 25 µM (inactive); in assay [6], > 25 µM (inactive). Further, the GI50 is 12.8 µM (inactive) in assay [7]; > 25 µM (inactive) in [8]; > 25 µM (inactive) in assay [9]; 14.6 µM (inactive) in assay [10]; > 25 µM (inactive) in assay [11]; > 25 µM (inactive) in assay [12]. Further, the GI50 in assay [13] was 7.66 µM (inactive); in assay [14], > 25 µM (inactive); in assay [15], > 25 µM (inactive); in [16], 7.08 µM (inactive); in [17] it was > 25 µM (inactive); in assay [18] it was > 25 µM (inactive). The GI50 in assay [19] was > 25 µM (inactive); in assay [20], 21.4 µM (inactive).

Turning to `CC(=O)Nc1ccc(S(=O)(=O)N/N=C/CN2C(=O)c3ccccc3C2=O)cc1`, the GI50 in assay [1], in assay [2], in [3], in assay [4], in assay [5] and in assay [6] was > 100 µM (inactive) throughout. In addition, the GI50 in assay [7], in assay [8], in assay [9], in [10], in assay [11] and in [12] was > 100 µM (inactive) throughout. Further, the GI50 in assay [13], in assay [14], in assay [15], in assay [16], in assay [17] and in assay [18] was > 100 µM (inactive) throughout. Besides, the GI50 in assay [19] and in assay [20] was > 100 µM (inactive) in each case.

As for `COc1ccc2c(c1)-c1c(c3cc(OC)ccc3n1CCCN(C)C)CC2`, the GI50 in assay [1] is 12.1 µM (inactive); in assay [2] it was 13.2 µM (inactive); in [3], 4.3 µM (inactive); in assay [4], 4.06 µM (inactive); in [5], 2.03 µM (inactive); in assay [6], 10.1 µM (inactive). The GI50 in [7] is 9.91 µM (inactive); in [8], 11 µM (inactive); in assay [9] it was 13.7 µM (inactive); in [10], 5.24 µM (inactive); in assay [11], 2.62 µM (inactive); in assay [12], 15.8 µM (inactive). The GI50 in [13] was 2.68 µM (inactive); in [14] it was 12 µM (inactive); in assay [15], 14.6 µM (inactive); in [16] it was 2.99 µM (inactive); in [17], 11.1 µM (inactive); in [18], 8.67 µM (inactive). Further, the figures for the GI50 in assay [19] and in assay [20] were 3.48 µM (inactive) and 6.98 µM (inactive), respectively.
